Laboratory results: patent US11926626B2, “Heterocyclic GLP-1 agonists” (Gasherbrum Bio, Inc., priority 2020, dated 2024)
Like-named read-outs stand apart in the source and are kept apart here.

Molecular target: GLP-1 Receptor (Homo sapiens, UniProt P43220)
Experiment: GLP-1R agonist cAMP stimulation assay (HEK293/GLP1R/CRE-Luc cells, HTRF cAMP)
Type: cell-based
Settings: 30 min, 37° C.; for EC50: read-out: GLP1R cAMP Stimulation DR: EC50
Experimental: Activation of GLP-1 receptor is known to stimulate cyclic AMP (cAMP) production in cells which indicates primary coupling to the Gαs subunit of the G protein heterotrimeric complex.
To optimize functional activity directed toward Gαs coupling, a HEK293/CRE-Luc cell line developed by HDB stably expressing the GLP-1 Receptor was used. […] 1×10^5 cells/mL HEK293/GLP1R/CRE-LUC(HD Biosciences) cell suspensions prepared with assay buffer[DPBS containing 0.5 mM IBMX (Sigma, Cat #I5879) and 0.1% BSA (GENVIEW, Cat #FA016-100g)], 10 uL cell suspensions were added to each well of previous generated assay plate which already contains 50 nl compound at 200×concentration using ThermoFisher Multidrop Combi (1000 cells/well). Seal the plate and incubate at 37° C. with 5% CO2 for 30 min.
After incubation the cAMP assay signal was generated using cAMP dynamic 2 Kit (Cisbio). 5 μL cAMP-d2 working solution was added to each well, followed with 5 μL Anti-cAMP antibody-cryptate working solution added to each well using ThermoFisher Multidrop Combi. Incubate at room temperature for 1 hour protected from light.

[1] = HEK293/CRE-Luc cells stably expressing GLP-1 Receptor

Sequence of GLP-1 Receptor (P43220 24-463): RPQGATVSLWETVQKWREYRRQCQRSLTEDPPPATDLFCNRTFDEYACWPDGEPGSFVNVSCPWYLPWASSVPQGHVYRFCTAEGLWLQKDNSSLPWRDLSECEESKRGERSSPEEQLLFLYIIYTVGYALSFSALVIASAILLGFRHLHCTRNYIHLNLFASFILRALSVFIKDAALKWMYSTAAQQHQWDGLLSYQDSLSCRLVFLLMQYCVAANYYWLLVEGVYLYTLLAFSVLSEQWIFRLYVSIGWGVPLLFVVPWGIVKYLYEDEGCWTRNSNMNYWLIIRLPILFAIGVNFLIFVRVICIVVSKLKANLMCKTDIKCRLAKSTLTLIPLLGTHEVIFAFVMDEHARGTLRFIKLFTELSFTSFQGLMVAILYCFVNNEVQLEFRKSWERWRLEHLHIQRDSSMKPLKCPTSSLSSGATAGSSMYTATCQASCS

Row | SMILES | GLP1R cAMP Stimulation DR: pEC50 [1] | further results
1 | O=C(O)c1ccc2nc(CN3CCC(Oc4cccc(Cc5ccc(Cl)s5)n4)CC3)n(C[C@@H]3CCO3)c2n1 [Compound 147a, 2-{[4-({6-[(5-chlorothiophen-2-yl)methyl]pyridin-2-yl}oxy)piperidin-1-yl]methyl}-3-{[(2S)-oxetan-2-yl]methyl}-3H-imidazo[4,5-b]pyridine-5-carboxylic acid] | – | GLP1R cAMP Stimulation DR: pEC50: 9.7; EC50: 200 pM
2 | O=C(O)c1ccc2nc(CN3CCC(Oc4cccc(CN5Cc6ccccc6C5=O)n4)CC3)n(C[C@@H]3CCO3)c2n1 [Compound 148a, 3-{[(2S)-oxetan-2-yl]methyl}-2-{[4-({6-[(1-oxo-2,3-dihydro-1H-isoindol-2-yl)methyl]pyridin-2-yl}oxy)piperidin-1-yl]methyl}-3H-imidazo[4,5-b]pyridine-5-carboxylic acid] | 8.4 | –
3 | O=C(O)c1ccc2nc(CN3CCC(Oc4cccc(Cn5ccc(Cl)cc5=O)n4)CC3)n(C[C@@H]3CCO3)c2n1 [Compound 149a, 2-{[4-({6-[(4-chloro-2-oxo-1,2-dihydropyridin-1-yl)methyl]pyridin-2-yl}oxy)piperidin-1-yl]methyl}-3-{[(2S)-oxetan-2-yl]methyl}-3H-imidazo[4,5-b]pyridine-5-carboxylic acid] | 8.3 | –
4 | O=C(O)c1ccc2nc(CN3CCC(Oc4ccc(F)c(Cc5ccc(Cl)cc5F)n4)CC3)n(C[C@@H]3CCO3)c2n1 [Compound 150a, (S)-2-((4-((6-(4-chloro-2-fluorobenzyl)-5-fluoropyridin-2-yl)oxy)piperidin-1-yl)methyl)-3-(oxetan-2-ylmethyl)-3H-imidazo[4,5-b]pyridine-5-carboxylic acid] | 7.2 | –
5 | O=C(O)c1ccc2nc(CN3CCC(Oc4nc(Cc5ccc(Cl)cc5F)ncc4F)CC3)n(C[C@@H]3CCO3)c2n1 [Compound 151a, (S)-2-((4-((2-(4-chloro-2-fluorobenzyl)-5-fluoropyrimidin-4-yl)oxy)piperidin-1-yl)methyl)-3-(oxetan-2-ylmethyl)-3H-imidazo[4,5-b]pyridine-5-carboxylic acid] | 10.1 | –
6 | O=C(O)c1ccc2nc(CN3CCC(Oc4ccnc(Cc5ccc(Cl)cc5)n4)CC3)n(C[C@@H]3CCO3)c2n1 [Compound 152a, 2-{[4-({2-[(4-chlorophenyl)methyl]pyrimidin-4-yl}oxy)piperidin-1-yl]methyl}-3-{[(2S)-oxetan-2-yl]methyl}-3H-imidazo[4,5-b]pyridine-5-carboxylic acid] | 10.4 | –
7 | Cc1cc(Cc2ccc(Cl)cc2)nc(OC2CCN(Cc3nc4ccc(C(=O)O)nc4n3C[C@@H]3CCO3)CC2)c1 [Compound 154a, 2-{[4-({6-[(4-chlorophenyl)methyl]-4-methylpyridin-2-yl}oxy)piperidin-1-yl]methyl}-3-{[(2S)-oxetan-2-yl]methyl}-3H-imidazo[4,5-b]pyridine-5-carboxylic acid] | 7.6 | –
8 | O=C(O)c1ccc2nc(CN3CCC(Oc4cc(Cl)cc(Cc5ccc(Cl)cc5)n4)CC3)n(C[C@@H]3CCO3)c2n1 [Compound 155a, 2-{[4-({4-chloro-6-[(4-chlorophenyl)methyl]pyridin-2-yl}oxy)piperidin-1-yl]methyl}-3-{[(2S)-oxetan-2-yl]methyl}-3H-imidazo[4,5-b]pyridine-5-carboxylic acid] | 8.4 | –
9 | O=C(O)c1ccc2nc(CN3CCC(Oc4cc(C(F)(F)F)cc(Cc5ccc(Cl)cc5)n4)CC3)n(C[C@@H]3CCO3)c2n1 [Compound 156a, 2-{[4-({6-[(4-chlorophenyl)methyl]-4-(trifluoromethyl)pyridin-2-yl}oxy)piperidin-1-yl]methyl}-3-{[(2S)-oxetan-2-yl]methyl}-3H-imidazo[4,5-b]pyridine-5-carboxylic acid] | 7.4 | –
10 | O=C(O)c1ccc2nc(CN3CCC(Oc4cccc(Cc5ccc(Cl)cc5)c4F)CC3)n(C[C@@H]3CCO3)c2n1 [Compound 157a, 2-[(4-{3-[(4-chlorophenyl)methyl]-2-fluorophenoxy}piperidin-1-yl)methyl]-3-{[(2S)-oxetan-2-yl]methyl}-3H-imidazo[4,5-b]pyridine-5-carboxylic acid] | 7.4 | –
11 | O=C(O)c1ccc2nc(CN3CCC(Oc4cccc(Cc5ccc(Cl)cc5)c4Cl)CC3)n(C[C@@H]3CCO3)c2n1 [Compound 158a, 2-[(4-{2-chloro-3-[(4-chlorophenyl)methyl]phenoxy}piperidin-1-yl)methyl]-3-{[(2S)-oxetan-2-yl]methyl}-3H-imidazo[4,5-b]pyridine-5-carboxylic acid] | <6.0 | –
12 | O=C(O)c1ccc2nc(CN3CCC(Oc4ccnc(Cc5ccc(Cl)cc5)c4)CC3)n(C[C@@H]3CCO3)c2n1 [Compound 159a, 2-{[4-({2-[(4-chlorophenyl)methyl]pyridin-4-yl}oxy)piperidin-1-yl]methyl}-3-{[(2S)-oxetan-2-yl]methyl}-3H-imidazo[4,5-b]pyridine-5-carboxylic acid] | 8.6 | –
13 | O=C(O)c1ccc2nc(CN3CCC(Oc4ccnc(Cc5ccc(Cl)cc5F)n4)CC3)n(C[C@@H]3CCO3)c2c1 [Compound 160a, 2-{[4-({2-[(4-chloro-2-fluorophenyl)methyl]pyrimidin-4-yl}oxy)piperidin-1-yl]methyl}-1-{[(2S)-oxetan-2-yl]methyl}-1H-1,3-benzodiazole-6-carboxylic acid] | 9.9 | –
14 | O=C(O)c1cnc2nc(CN3CCC(Oc4ccnc(Cc5ccc(Cl)cc5F)n4)CC3)n(C[C@@H]3CCO3)c2c1 [Compound 161a, 2-{[4-({2-[(4-chloro-2-fluorophenyl)methyl]pyrimidin-4-yl}oxy)piperidin-1-yl]methyl}-1-{[(2S)-oxetan-2-yl]methyl}-1H-imidazo[4,5-b]pyridine-6-carboxylic acid] | 9.7 | –
15 | N#CC1(Cn2c(CN3CCC(Oc4ccnc(Cc5ccc(Cl)cc5F)n4)CC3)nc3ccc(C(=O)O)cc32)CC1 [Compound 162, 2-{[4-({2-[(4-chloro-2-fluorophenyl)methyl]pyrimidin-4-yl}oxy)piperidin-1-yl]methyl}-1-[(1-cyanocyclopropyl)methyl]-1H-1,3-benzodiazole-6-carboxylic acid] | 10.1 | –
16 | O=C(O)c1ccc2nc(CN3CCC(Oc4ccnc(Cc5ccc(F)cc5F)n4)CC3)n(C[C@@H]3CCO3)c2n1 [Compound 165a, 2-{[4-({2-[(2,4-difluorophenyl)methyl]pyrimidin-4-yl}oxy)piperidin-1-yl]methyl}-3-{[(2S)-oxetan-2-yl]methyl}-3H-imidazo[4,5-b]pyridine-5-carboxylic acid] | 9.4 | EC50 [1]: 400 pM
17 | O=C(O)c1ccc2nc(CN3CCC(Oc4ccnc(Cc5ccc(Cl)c(Cl)c5)n4)CC3)n(C[C@@H]3CCO3)c2n1 [Compound 167a, 2-{[4-({2-[(3,4-dichlorophenyl)methyl]pyrimidin-4-yl}oxy)piperidin-1-yl]methyl}-3-{[(2S)-oxetan-2-yl]methyl}-3H-imidazo[4,5-b]pyridine-5-carboxylic acid] | 9.9 | –
18 | O=C(O)c1ccc2nc(CN3CCC(Oc4ccnc(Cc5ccc(Cl)cc5F)n4)C(F)(F)C3)n(C[C@@H]3CCO3)c2n1 (stereo partly drawn) [Compound 168a, 2-{[4-({2-[(4-chloro-2-fluorophenyl)methyl]pyrimidin-4-yl}oxy)-3,3-difluoropiperidin-1-yl]methyl}-3-{[(2S)-oxetan-2-yl]methyl}-3H-imidazo[4,5-b]pyridine-5-carboxylic acid] | 8.9 | –
19 | O=C(O)c1ccc2nc(CN3CCC(C(F)(F)c4cccc(Cc5ccc(Cl)cc5F)n4)CC3)n(C[C@@H]3CCO3)c2n1 [Compound 173a, 2-{[4-({6-[(4-chloro-2-fluorophenyl)methyl]pyridin-2-yl}difluoromethyl)piperidin-1-yl]methyl}-3-{[(2S)-oxetan-2-yl]methyl}-3H-imidazo[4,5-b]pyridine-5-carboxylic acid] | – | GLP1R cAMP Stimulation DR: pEC50: 8.4
20 | O=C(O)c1ccc2nc(C[C@H]3CC[C@@H](Oc4cccc(Cc5ccc(Cl)cc5F)n4)CC3)n(C[C@@H]3CCO3)c2n1 [Compound 174a, 3-{[(2S)-oxetan-2-yl]methyl}-2-{[cis-4-({6-[(4-chloro-2-fluorophenyl)methyl]pyridin-2-yl}oxy)cyclohexyl]methyl}-3H-imidazo[4,5-b]pyridine-5-carboxylic acid] | 7.5 | –
21 | O=C(O)c1ccc2nc(C[C@H]3CC[C@H](Oc4cccc(Cc5ccc(Cl)cc5F)n4)CC3)n(C[C@@H]3CCO3)c2n1 [Compound 174b, 3-{[(2S)-oxetan-2-yl]methyl}-2-{[trans-4-({6-[(4-chloro-2-fluorophenyl)methyl]pyridin-2-yl}oxy)cyclohexyl]methyl}-3H-imidazo[4,5-b]pyridine-5-carboxylic acid] | 9.9 | –
22 | O=C(O)c1ccc2nc(C[C@H]3CC[C@@H](Oc4ccnc(Cc5ccc(Cl)cc5F)n4)CC3)n(C[C@@H]3CCO3)c2n1 [Compound 175a, 3-{[(2S)-oxetan-2-yl]methyl}-2-{[cis-4-({2-[(4-chloro-2-fluorophenyl)methyl]pyrimidin-4-yl}oxy)cyclohexyl]methyl}-3H-imidazo[4,5-b]pyridine-5-carboxylic acid] | 6.6 | –
